Results: ChEMBL document CHEMBL4308907, “Pyrrolidinone-bearing methylated and halogenated benzenesulfonamides as inhibitors of carbonic anhydrases” (Bioorg Med Chem, 2019)
pKd: −log10 of the molar value.

What was measured:
Carbonic anhydrase 2 = Carbonic anhydrase 2 (Homo sapiens, UniProt P00918); experiment: Binding affinity to recombinant human CA2 by DSF-based fluorescence thermal shift assay
Carbonic anhydrase 6 = Carbonic anhydrase 6 (Homo sapiens, UniProt P23280); experiment: Binding affinity to recombinant human CA6 by DSF-based fluorescence thermal shift assay
Carbonic anhydrase 6, sequence (P23280 whole entry): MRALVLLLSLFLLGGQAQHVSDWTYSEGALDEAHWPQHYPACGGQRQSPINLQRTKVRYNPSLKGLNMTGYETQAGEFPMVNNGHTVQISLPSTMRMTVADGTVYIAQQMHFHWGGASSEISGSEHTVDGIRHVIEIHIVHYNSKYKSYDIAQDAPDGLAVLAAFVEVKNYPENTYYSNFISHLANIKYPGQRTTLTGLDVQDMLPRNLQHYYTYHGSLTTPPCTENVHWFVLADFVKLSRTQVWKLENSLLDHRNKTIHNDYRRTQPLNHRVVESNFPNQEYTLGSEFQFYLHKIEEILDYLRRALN

Carbonic anhydrase 13 = Carbonic anhydrase 13 (Homo sapiens, UniProt Q8N1Q1); experiment: Binding affinity to recombinant human CA13 by DSF-based fluorescence thermal shift assay
Carbonic anhydrase 13, sequence (Q8N1Q1 whole entry): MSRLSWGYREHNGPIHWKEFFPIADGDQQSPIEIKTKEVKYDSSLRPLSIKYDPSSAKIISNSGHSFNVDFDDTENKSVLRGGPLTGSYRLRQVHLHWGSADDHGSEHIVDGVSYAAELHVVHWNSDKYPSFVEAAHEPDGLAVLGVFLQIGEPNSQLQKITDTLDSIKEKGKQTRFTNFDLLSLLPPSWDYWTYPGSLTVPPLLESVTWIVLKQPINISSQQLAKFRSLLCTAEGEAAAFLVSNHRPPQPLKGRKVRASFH

Carbonic anhydrase 4 = Carbonic anhydrase 4 (Homo sapiens, UniProt P22748); experiment: Binding affinity to recombinant human CA4 by DSF-based fluorescence thermal shift assay
Carbonic anhydrase 4, sequence (P22748 whole entry): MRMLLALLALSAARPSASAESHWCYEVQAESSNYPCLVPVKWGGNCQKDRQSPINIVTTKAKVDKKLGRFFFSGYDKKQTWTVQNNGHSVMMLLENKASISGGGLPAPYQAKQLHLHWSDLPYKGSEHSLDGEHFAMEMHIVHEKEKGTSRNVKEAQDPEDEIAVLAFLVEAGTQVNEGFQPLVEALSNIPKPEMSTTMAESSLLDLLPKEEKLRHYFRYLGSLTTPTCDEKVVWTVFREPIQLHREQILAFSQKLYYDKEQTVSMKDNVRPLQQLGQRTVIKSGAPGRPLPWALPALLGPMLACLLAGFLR

[1] = target: Carbonic anhydrase 5B, mitochondrial (Homo sapiens, UniProt Q9Y2D0); experiment: Binding affinity to recombinant full length N-terminal His6x-tagged human CA5B expressed in Escherichia coli Rosetta 2 (DE3) by DSF-based fluorescence thermal shift assay
Carbonic anhydrase 5B, mitochondrial, sequence (Q9Y2D0 whole entry): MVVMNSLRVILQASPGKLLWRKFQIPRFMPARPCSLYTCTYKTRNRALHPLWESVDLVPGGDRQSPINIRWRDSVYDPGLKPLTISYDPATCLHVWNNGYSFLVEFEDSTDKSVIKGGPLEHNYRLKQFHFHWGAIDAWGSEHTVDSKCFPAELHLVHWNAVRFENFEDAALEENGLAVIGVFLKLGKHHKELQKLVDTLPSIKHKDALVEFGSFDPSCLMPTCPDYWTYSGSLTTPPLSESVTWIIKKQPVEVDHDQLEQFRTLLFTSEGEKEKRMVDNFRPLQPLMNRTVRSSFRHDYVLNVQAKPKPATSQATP

Carbonic anhydrase 9 = Carbonic anhydrase 9 (Homo sapiens, UniProt Q16790); experiment: Binding affinity to recombinant human CA9 by DSF-based fluorescence thermal shift assay
Carbonic anhydrase 3 = Carbonic anhydrase 3 (Homo sapiens, UniProt P07451); experiment: Binding affinity to recombinant N-terminal His6x-tagged human CA3 (4 to 260 residues) expressed in Escherichia coli BL21(DE3) by DSF-based fluorescence thermal shift assay
Carbonic anhydrase 3, sequence (P07451 whole entry, the tested form may be a part): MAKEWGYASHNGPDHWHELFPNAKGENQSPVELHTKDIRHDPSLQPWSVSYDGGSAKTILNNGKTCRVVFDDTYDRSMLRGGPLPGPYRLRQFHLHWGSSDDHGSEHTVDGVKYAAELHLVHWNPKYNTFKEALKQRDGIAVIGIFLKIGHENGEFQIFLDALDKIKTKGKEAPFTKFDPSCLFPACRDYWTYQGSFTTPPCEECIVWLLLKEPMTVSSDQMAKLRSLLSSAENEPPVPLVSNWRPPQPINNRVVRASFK

Carbonic anhydrase 1 = Carbonic anhydrase 1 (Homo sapiens, UniProt P00915); experiment: Binding affinity to recombinant human CA1 by DSF-based fluorescence thermal shift assay
Carbonic anhydrase 1, sequence (P00915 whole entry): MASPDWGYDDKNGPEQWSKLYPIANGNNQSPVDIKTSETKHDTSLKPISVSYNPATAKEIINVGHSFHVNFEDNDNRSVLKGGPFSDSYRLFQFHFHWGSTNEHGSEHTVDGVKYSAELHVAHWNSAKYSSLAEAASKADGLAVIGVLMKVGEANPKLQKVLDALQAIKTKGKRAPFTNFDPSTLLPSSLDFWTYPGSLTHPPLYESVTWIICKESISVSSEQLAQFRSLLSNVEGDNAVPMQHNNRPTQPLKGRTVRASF

Carbonic anhydrase 12 = Carbonic anhydrase 12 (Homo sapiens, UniProt O43570); experiment: Binding affinity to recombinant human CA12 by DSF-based fluorescence thermal shift assay
Carbonic anhydrase 12, sequence (O43570 whole entry): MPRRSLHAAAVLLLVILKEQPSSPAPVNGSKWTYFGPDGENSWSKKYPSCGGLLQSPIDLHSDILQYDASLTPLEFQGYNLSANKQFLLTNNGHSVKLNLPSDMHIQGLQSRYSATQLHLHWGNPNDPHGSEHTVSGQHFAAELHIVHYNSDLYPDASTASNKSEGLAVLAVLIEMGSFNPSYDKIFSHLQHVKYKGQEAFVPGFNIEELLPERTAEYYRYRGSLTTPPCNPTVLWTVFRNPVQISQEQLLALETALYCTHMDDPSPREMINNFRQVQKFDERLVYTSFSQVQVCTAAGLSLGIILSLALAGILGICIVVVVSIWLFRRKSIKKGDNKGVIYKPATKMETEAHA

Carbonic anhydrase 7 = Carbonic anhydrase 7 (Homo sapiens, UniProt P43166); experiment: Binding affinity to recombinant human CA7 by DSF-based fluorescence thermal shift assay
Carbonic anhydrase 7, sequence (P43166 whole entry): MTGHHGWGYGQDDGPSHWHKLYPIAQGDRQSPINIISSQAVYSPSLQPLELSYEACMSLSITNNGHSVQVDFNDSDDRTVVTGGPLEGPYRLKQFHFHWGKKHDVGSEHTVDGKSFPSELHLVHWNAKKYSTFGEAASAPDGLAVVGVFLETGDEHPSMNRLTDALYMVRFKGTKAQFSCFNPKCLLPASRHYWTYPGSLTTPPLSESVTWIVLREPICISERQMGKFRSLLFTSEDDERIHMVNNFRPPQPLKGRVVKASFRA

| Compound | pKd (Carbonic anhydrase 2) | pKd (Carbonic anhydrase 6) | pKd (Carbonic anhydrase 13) | pKd (Carbonic anhydrase 4) | pKd [1] | pKd (Carbonic anhydrase 9) | pKd (Carbonic anhydrase 3) | pKd (Carbonic anhydrase 1) | pKd (Carbonic anhydrase 12) | pKd (Carbonic anhydrase 7) |
| --- | --- | --- | --- | --- | --- | --- | --- | --- | --- | --- |
| Cc1cc(C)cc(NC(=O)C2CC(=O)N(c3ccccc3)C2)c1 (stereo not given) | ≤ 3.70 | ≤ 3.70 | ≤ 3.70 | ≤ 3.70 | ≤ 3.70 | ≤ 3.70 | ≤ 3.70 | ≤ 3.70 | ≤ 3.70 | – |
| Cc1c(Br)c(N2CC(C(=O)NN)CC2=O)c(Br)c(C)c1S(N)(=O)=O (stereo not given) | ≤ 3.70 | ≤ 3.70 | ≤ 3.70 | ≤ 3.70 | ≤ 3.70 | ≤ 3.70 | ≤ 3.70 | ≤ 3.70 | ≤ 3.70 | ≤ 3.70 |
| COC(=O)C1CC(=O)N(c2cc(C)c(S(N)(=O)=O)c(C)c2)C1 (stereo not given) | 5.70 | 4.30 | 5.70 | 5.17 | ≤ 3.70 | 5.52 | ≤ 3.70 | 5.82 | – | 5.47 |
| COc1ccc(/C=N/NC(=O)C2CC(=O)N(c3cc(C)c(S(N)(=O)=O)c(C)c3Cl)C2)cc1 (stereo not given) | 7.25 | 6.23 | 7.30 | 6.74 | 8.49 | 7.11 | ≤ 3.70 | 6.15 | – | 7.80 |
| Cc1cc(N2CC(C(=O)N/N=C/c3ccc(Br)cc3)CC2=O)cc(C)c1S(N)(=O)=O (stereo not given) | 5.54 | 4.74 | 4.48 | 4.70 | 6.20 | 5.60 | ≤ 3.70 | 5.60 | 4.48 | 4.43 |
| Cc1cc(NC(=O)C2CC(=O)N(c3ccccc3)C2)cc(C)c1S(N)(=O)=O (stereo not given) | – | 4.35 | 5.41 | 5.17 | – | – | ≤ 3.70 | 5.80 | ≤ 3.70 | 5.08 |
| Cc1cc(C)n(NC(=O)C2CC(=O)N(c3cc(C)c(S(N)(=O)=O)c(C)c3)C2)n1 (stereo not given) | 5.70 | 4.54 | 5.08 | 5.70 | 6.30 | 5.70 | ≤ 3.70 | 5.54 | 4.17 | 4.48 |
| Cc1cc(N2CC(c3n[nH]c(=S)o3)CC2=O)c(Cl)c(C)c1S(N)(=O)=O (stereo not given) | 7.00 | 5.48 | 7.00 | – | 6.60 | 7.17 | ≤ 3.70 | 6.08 | – | 6.89 |
| Cc1cc(C)n(NC(=O)C2CC(=O)N(c3cc(C)c(S(N)(=O)=O)c(C)c3Cl)C2)n1 (stereo not given) | 7.70 | 5.48 | 8.00 | – | 7.00 | 7.00 | – | 5.96 | 5.70 | 7.60 |
| NS(=O)(=O)c1ccc(NC(=O)C2CC(=O)N(c3cccc(Br)c3)C2)cc1 (stereo not given) | 6.72 | 5.62 | 5.96 | 6.09 | 6.13 | 7.25 | ≤ 3.70 | 6.51 | 5.00 | 6.77 |
| Cc1cc(N2CC(C(=O)NNC(=S)Nc3ccccc3)CC2=O)c(Cl)c(C)c1S(N)(=O)=O (stereo not given) | 7.49 | 5.66 | 7.85 | – | 6.70 | 7.00 | – | 6.44 | 6.44 | 7.00 |
| Cc1cc(NCC(CC(=O)O)c2n[nH]c(=S)n2-c2ccccc2)cc(C)c1S(N)(=O)=O (stereo not given) | 4.00 | ≤ 3.70 | 4.48 | ≤ 3.70 | ≤ 3.70 | – | – | 4.00 | 4.30 | ≤ 3.70 |
| COC(=O)C1CC(=O)N(c2cc(C)c(S(N)(=O)=O)c(C)c2Cl)C1 (stereo not given) | 7.54 | 5.32 | 7.85 | 6.00 | 7.60 | 7.00 | ≤ 3.70 | 6.17 | – | 7.89 |
| Cc1c(Br)c(N2CC(C(=O)N/N=C/c3ccccc3)CC2=O)c(Br)c(C)c1S(N)(=O)=O (stereo not given) | ≤ 3.70 | ≤ 3.70 | ≤ 3.70 | ≤ 3.70 | ≤ 3.70 | ≤ 3.70 | ≤ 3.70 | ≤ 3.70 | ≤ 3.70 | ≤ 3.70 |
| Cc1cc(N2CC(C(=O)N/N=C/c3ccc(Br)cc3)CC2=O)c(Cl)c(C)c1S(N)(=O)=O (stereo not given) | 7.30 | 6.04 | 7.17 | 6.47 | 8.11 | 6.70 | ≤ 3.70 | 6.25 | 5.85 | 7.20 |
| NS(=O)(=O)c1ccc(NC(=O)C2CC(=O)N(c3ccccc3)C2)cc1 (stereo not given) | 7.06 | 5.44 | 6.18 | 6.07 | 6.26 | 7.28 | ≤ 3.70 | 6.59 | 5.25 | 6.96 |
| Cc1cc(C)n(C(=O)C2CC(=O)N(c3cc(C)c(S(N)(=O)=O)c(C)c3Cl)C2)n1 (stereo not given) | 7.60 | 5.48 | – | – | 7.89 | 6.85 | ≤ 3.70 | 6.60 | 6.00 | 7.70 |
| Cc1cc(NCC(CC(=O)O)c2n[nH]c(=S)n2-c2ccccc2)c(Cl)c(C)c1S(N)(=O)=O (stereo not given) | 4.77 | 5.00 | 5.85 | 5.00 | 5.00 | 6.00 | – | 4.40 | 5.60 | 5.11 |
| Cc1cc(N2CC(c3n[nH]c(=S)n3-c3ccccc3)CC2=O)c(Cl)c(C)c1S(N)(=O)=O (stereo not given) | 7.48 | 5.51 | 7.77 | – | 7.40 | 7.05 | ≤ 3.70 | 6.36 | 6.30 | 8.06 |
| COC(=O)C1CC(=O)N(c2c(Br)c(C)c(S(N)(=O)=O)c(C)c2Br)C1 (stereo not given) | ≤ 3.70 | ≤ 3.70 | ≤ 3.70 | ≤ 3.70 | ≤ 3.70 | ≤ 3.70 | ≤ 3.70 | ≤ 3.70 | ≤ 3.70 | ≤ 3.70 |
| NS(=O)(=O)c1ccc(NC(=O)C2CC(=O)N(c3ccccc3Br)C2)cc1 (stereo not given) | 7.06 | 5.43 | 6.70 | 6.40 | 6.72 | 7.42 | ≤ 3.70 | 6.68 | 5.46 | 7.29 |
| Cc1cc(S(N)(=O)=O)c(C)cc1N1CC(C(=O)N/N=C/c2ccc([N+](=O)[O-])cc2)CC1=O (stereo not given) | 5.68 | 5.00 | 6.49 | 4.77 | 7.55 | 5.96 | ≤ 3.70 | 5.21 | 4.85 | 5.89 |
| Cc1c(Br)c(N2CC(C(=O)N/N=C/c3ccc([N+](=O)[O-])cc3)CC2=O)c(Br)c(C)c1S(N)(=O)=O (stereo not given) | ≤ 3.70 | – | ≤ 3.70 | – | – | – | – | ≤ 3.70 | ≤ 3.70 | – |
| COc1ccc(/C=N/NC(=O)C2CC(=O)N(c3cc(C)c(S(N)(=O)=O)c(C)c3)C2)cc1 (stereo not given) | 5.70 | 4.85 | 4.68 | 5.66 | 6.17 | 5.70 | ≤ 3.70 | 5.70 | 4.74 | 4.74 |
| Cc1cc(N2CC(c3n[nH]c(=S)n3-c3ccccc3)CC2=O)cc(C)c1S(N)(=O)=O (stereo not given) | 5.70 | 4.39 | 5.70 | 5.15 | 6.11 | 5.85 | ≤ 3.70 | 5.60 | 5.00 | 5.27 |
| NS(=O)(=O)c1ccc(NC(=O)C2CC(=O)N(c3ccc(Br)cc3)C2)cc1 (stereo not given) | 6.19 | 4.77 | 5.51 | 5.25 | 5.42 | 6.37 | ≤ 3.70 | 5.48 | 4.41 | 5.82 |
| Cc1cc(N2CC(c3n[nH]c(=S)o3)CC2=O)cc(C)c1S(N)(=O)=O (stereo not given) | 5.11 | 4.30 | ≤ 3.70 | 5.16 | 5.70 | 5.48 | ≤ 3.70 | 5.00 | ≤ 3.70 | 4.70 |
| Cc1c(Br)c(N2CC(C(=O)O)CC2=O)c(Br)c(C)c1S(N)(=O)=O (stereo not given) | ≤ 3.70 | ≤ 3.70 | ≤ 3.70 | ≤ 3.70 | ≤ 3.70 | ≤ 3.70 | ≤ 3.70 | ≤ 3.70 | ≤ 3.70 | ≤ 3.70 |
| Cc1cc(N2CC(C(=O)NNC(=S)Nc3ccccc3)CC2=O)cc(C)c1S(N)(=O)=O (stereo not given) | 5.96 | ≤ 3.70 | 6.00 | 5.16 | 6.11 | 5.85 | ≤ 3.70 | 6.04 | 5.30 | 5.19 |
| Cc1cc(N2CC(C(=O)NN3CC(C(=O)O)CC3=O)CC2=O)cc(C)c1S(N)(=O)=O (stereo not given) | 5.15 | 4.08 | 5.17 | 5.04 | 5.11 | 5.40 | ≤ 3.70 | 4.89 | 4.66 | 4.48 |
